{"source": "ChEMBL document CHEMBL2424535", "about": "“Fragment-based discovery of focal adhesion kinase inhibitors” (Bioorg Med Chem Lett, 2013)", "key": {"[1]": {"assay": "Lipophilicity, log D of the compound at pH 7.4", "format": "physicochemical", "conditions": "buffer"}, "[2]": {"assay": "Partition coefficient, log P of the compound", "format": "physicochemical", "conditions": "octanol/water"}}}
{"smiles": "Cc1ccc(-n2nc(C(C)(C)C)cc2NC(=O)Nc2ccc(-c3ccc(OCc4ccccc4)nc3)cc2)cc1", "values": [{"measurement": "logD", "setting": "[1]; read-out: logD", "result": 3.94}, {"measurement": "logP", "setting": "[2]; read-out: logP", "result": "> 5.4"}]}
{"smiles": "Cc1ccc(-n2nc(C(C)(C)C)cc2NC(=O)Nc2ccc(-n3cnnn3)cc2)cc1", "values": [{"measurement": "logD", "setting": "[1]; read-out: logD", "result": 3.79}, {"measurement": "logP", "setting": "[2]; read-out: logP", "result": 4.14}]}
{"smiles": "Cc1ccc(-n2nc(C(C)(C)C)cc2NC(=O)Nc2ccc(-c3nncn3C)cc2)cc1", "values": [{"measurement": "logD", "setting": "[1]; read-out: logD", "result": 3.21}, {"measurement": "logP", "setting": "[2]; read-out: logP", "result": 3.34}]}
{"smiles": "Cc1ccc(-n2nc(C(C)(C)C)cc2NC(=O)Nc2ccc(-n3nnnc3C)cc2)cc1", "values": [{"measurement": "logD", "setting": "[1]; read-out: logD", "result": 3.81}, {"measurement": "logP", "setting": "[2]; read-out: logP", "result": 3.86}]}
{"smiles": "COc1ccc(-c2ccc(NC(=O)Nc3cc(C(C)(C)C)nn3-c3ccc(C)cc3)cc2)cn1", "values": [{"measurement": "logD", "setting": "[1]; read-out: logD", "result": 4.02}, {"measurement": "logP", "setting": "[2]; read-out: logP", "result": 4.25}]}
{"smiles": "Cc1ccc(-n2nc(C(C)(C)C)cc2NC(=O)Nc2ccc(-c3csnn3)cc2)cc1", "values": [{"measurement": "logD", "setting": "[1]; read-out: logD", "result": 4.58}, {"measurement": "logP", "setting": "[2]; read-out: logP", "result": 5.15}]}
{"smiles": "COc1cc(OC)nc(-c2ccc(NC(=O)Nc3cc(C(C)(C)C)nn3-c3ccc(C)cc3)cc2)n1", "values": [{"measurement": "logD", "setting": "[1]; read-out: logD", "result": 3.94}, {"measurement": "logP", "setting": "[2]; read-out: logP", "result": "> 5.4"}]}
{"smiles": "Cc1ccc(-n2nc(C(C)(C)C)cc2NC(=O)Nc2ccc(-n3cnc4c(N)ncnc43)cc2)cc1", "values": [{"measurement": "logD", "setting": "[1]; read-out: logD", "result": 4.05}, {"measurement": "logP", "setting": "[2]; read-out: logP", "result": 3.98}]}
{"smiles": "Cc1ccc(-n2nc(C(C)(C)C)cc2NC(=O)Nc2ccc(-n3ccnc3)cc2)cc1", "values": [{"measurement": "logD", "setting": "[1]; read-out: logD", "result": 3.85}, {"measurement": "logP", "setting": "[2]; read-out: logP", "result": 4.35}]}
{"smiles": "Cc1ccc(-n2nc(C(C)(C)C)cc2NC(=O)Nc2ccc(-n3cncc3C)cc2)cc1", "values": [{"measurement": "logD", "setting": "[1]; read-out: logD", "result": 4.33}, {"measurement": "logP", "setting": "[2]; read-out: logP", "result": 4.6}]}
{"smiles": "Cc1ccc(-n2nc(C(C)(C)C)cc2NC(=O)Nc2ccc(-n3cnc(C)c3)cc2)cc1", "values": [{"measurement": "logD", "setting": "[1]; read-out: logD", "result": 4.08}, {"measurement": "logP", "setting": "[2]; read-out: logP", "result": 4.83}]}
{"smiles": "Cc1ccc(-n2nc(C(C)(C)C)cc2NC(=O)Nc2ccc(-n3cnc(Cl)c3Cl)cc2)cc1", "values": [{"measurement": "logD", "setting": "[1]; read-out: logD", "result": 3.96}, {"measurement": "logP", "setting": "[2]; read-out: logP", "result": "> 5.4"}]}
{"smiles": "Cc1ccc(-n2nc(C(C)(C)C)cc2NC(=O)Nc2ccc(-c3cccnc3)cc2)cc1", "values": [{"measurement": "logD", "setting": "[1]; read-out: logD", "result": 4.25}, {"measurement": "logP", "setting": "[2]; read-out: logP", "result": 4.84}]}
{"smiles": "Cc1ccc(-n2nc(C(C)(C)C)cc2NC(=O)Nc2ccc(-c3nnc(S)n3C)cc2)cc1", "values": [{"measurement": "logD", "setting": "[1]", "result": 3.89}, {"measurement": "logP", "setting": "[2]", "result": 2.86}]}
{"smiles": "Cc1ccc(-n2nc(C(C)(C)C)cc2NC(=O)Nc2ccc(-c3ccc(N)nc3)cc2)cc1", "values": [{"measurement": "logD", "setting": "[1]; read-out: logD", "result": 3.88}, {"measurement": "logP", "setting": "[2]; read-out: logP", "result": 5.13}]}
{"smiles": "Cc1ccc(-n2nc(C(C)(C)C)cc2NC(=O)Nc2ccc(-n3cnnc3)cc2)cc1", "values": [{"measurement": "logD", "setting": "[1]; read-out: logD", "result": 3.94}, {"measurement": "logP", "setting": "[2]; read-out: logP", "result": 4.07}]}
{"smiles": "Cc1ccc(-n2nc(C(C)(C)C)cc2NC(=O)Nc2ccc(-c3cnco3)cc2)cc1", "values": [{"measurement": "logD", "setting": "[1]; read-out: logD", "result": 4.49}, {"measurement": "logP", "setting": "[2]; read-out: logP", "result": 4.96}]}
{"smiles": "Cc1ccc(-n2nc(C(C)(C)C)cc2NC(=O)Nc2ccc(-c3ccncc3)cc2)cc1", "values": [{"measurement": "logD", "setting": "[1]; read-out: logD", "result": 3.58}, {"measurement": "logP", "setting": "[2]; read-out: logP", "result": "> 5"}]}
